IC50 data for 45 compounds are collected here from patent US20210040062A1, “AZOLE-SUBSTITUTED PYRIDINE COMPOUND” (TAISHO PHARMACEUTICAL CO., LTD., priority 2016, published 2021).

Test [1] deals with T1, human CYP4A11 (Homo sapiens, UniProt Q02928).
T1 construct: host or cells: Escherichia coli (membrane fraction)
T1 sequence (Q02928 5-519): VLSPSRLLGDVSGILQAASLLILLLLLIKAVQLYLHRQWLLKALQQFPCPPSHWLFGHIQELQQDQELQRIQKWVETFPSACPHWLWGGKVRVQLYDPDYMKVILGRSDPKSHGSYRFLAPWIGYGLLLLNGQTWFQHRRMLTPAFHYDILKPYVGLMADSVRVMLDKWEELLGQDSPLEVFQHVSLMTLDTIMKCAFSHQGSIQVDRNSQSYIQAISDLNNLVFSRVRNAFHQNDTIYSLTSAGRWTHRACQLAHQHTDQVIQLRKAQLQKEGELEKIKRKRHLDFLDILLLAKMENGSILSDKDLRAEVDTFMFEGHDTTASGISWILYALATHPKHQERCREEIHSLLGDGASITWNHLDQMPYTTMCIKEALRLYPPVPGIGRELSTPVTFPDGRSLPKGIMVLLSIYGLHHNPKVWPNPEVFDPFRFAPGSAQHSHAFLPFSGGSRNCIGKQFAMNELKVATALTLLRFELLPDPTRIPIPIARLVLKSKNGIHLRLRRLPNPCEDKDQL
As to the kind of experiment: CYP4A11 inhibition test (Test Example 1). The conditions noted are these: Escherichia coli membrane fraction expressing human CYP4A11, 60 μM luciferine derivative, room temperature 60 minutes, luminescence. It is filed as biochemical. As for the experimental part: (§1) (1) Inhibition Test for Each Compound of the Present Invention Against 20-HETE Producing Enzymes (CYP4F2 and CYP4A11)
(§2) In the CYP4F2 inhibition test, the reaction solution containing each compound [final concentration of 50 mM, KPO4 (pH 7.4), 2.5 μM, luciferine derivative and 1 mM NADPH] was added to an Escherichia coli membrane fraction (100 μg/mL, protein) in which human CYP4F2 had been expressed. In the CYP4A11 inhibition test, the reaction solution containing each compound [final concentration of 100 mM, Tris-HCl (pH 7.5), 60 μM, luciferine derivative, 1.3 mM NADP^+, 3.3 mM Glucose 6-Phosphate, 3.3 mM MgCl2 and 0.4 U/mL Glucose 6-Phosphate dehydrogenase] was added to an Escherichia coli membrane fraction (100 μg/mL, protein) in which human CYP4A11 had been expressed. Following this, the membrane fraction was left to stand at room temperature for 60 minutes to perform an enzymatic reaction. After the reaction, a luciferine detection reagent was added, and the luminescence value was measured using a plate reader.
(§3) A: Luminescence value with addition of compound
(§4) B: Luminescence value without addition of compound and enzyme
(§5) C: Luminescence value without addition of compound

In test [2] the target is T2, human CYP4F2 (Homo sapiens, UniProt P78329).
T2 construct: host or cells: Escherichia coli (membrane fraction)
T2 sequence (P78329 5-520): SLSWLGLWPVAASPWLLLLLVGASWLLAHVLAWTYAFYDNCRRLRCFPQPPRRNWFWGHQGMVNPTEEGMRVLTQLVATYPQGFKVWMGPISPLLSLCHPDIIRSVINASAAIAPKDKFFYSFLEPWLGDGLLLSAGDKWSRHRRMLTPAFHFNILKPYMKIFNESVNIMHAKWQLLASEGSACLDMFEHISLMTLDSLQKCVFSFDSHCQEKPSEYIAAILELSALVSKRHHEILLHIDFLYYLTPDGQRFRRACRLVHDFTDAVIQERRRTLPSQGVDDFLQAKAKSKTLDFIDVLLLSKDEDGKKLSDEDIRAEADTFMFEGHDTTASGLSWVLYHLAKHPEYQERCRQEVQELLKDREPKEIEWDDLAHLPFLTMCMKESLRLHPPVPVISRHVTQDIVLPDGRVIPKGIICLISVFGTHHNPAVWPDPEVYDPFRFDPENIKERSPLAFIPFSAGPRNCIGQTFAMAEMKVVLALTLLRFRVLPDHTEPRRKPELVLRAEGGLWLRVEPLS
As to the kind of experiment: CYP4F2 inhibition test (Test Example 1). It counts as biochemical. Conditions: Escherichia coli membrane fraction expressing human CYP4F2, 2.5 μM luciferine derivative, room temperature 60 minutes, luminescence. As for the experimental part: as §1, §2, §3, §4, §5

For orientation: IC50 means the concentration that inhibits the measured activity by half. A low value points to greater potency in that assay. For `CS(=N)(=O)c1cccc(COc2ccc(-c3ccn[nH]3)nc2)c1` (racemic) [Example 50-1, Imino-methyl-oxo-(3-{[6-(1H-pyrazol-5-yl)pyridin-3-yl]oxymethyl}phenyl)-λ^6-sulfane], the results for the IC50 in test [1] and in test [2] were 240 nM and 580 nM, respectively.

Turning to `COC(=O)N1CCC(CCOc2ccc(-c3ccn[nH]3)nc2)C(C)C1` (single isomer, unassigned) [Example 1-16-1], the IC50 in test [1] is 53 nM; in test [2], 240 nM.

As for `COC(=O)N1CCC(CCOc2ccc(-c3ccn[nH]3)nc2)C(C)C1` (single isomer, unassigned) [Example 1-16-2], the IC50 came out at 57 nM in test [1] and 260 nM in test [2].

`CS(=N)(=O)c1cccc(COc2ccc(-c3ccn[nH]3)nc2)c1` (single isomer, unassigned) [Example 50-2, Imino-methyl-oxo-(3-{[6-(1H-pyrazol-5-yl)pyridin-3-yl]oxymethyl}phenyl)-λ^6-sulfane]: the figures for the IC50 in test [1] and in test [2] were 250 nM and 1200 nM, respectively.

As for `CS(=N)(=O)c1cccc(COc2ccc(-c3ccn[nH]3)nc2)c1` (single isomer, unassigned) [Example 50-3, Imino-methyl-oxo-(3-{[6-(1H-pyrazol-5-yl)pyridin-3-yl]oxymethyl}phenyl)-λ^6-sulfane], the IC50 came to 340 nM in test [1] and 380 nM in test [2].

Turning to `CC(C)c1cccc(COc2ccc(-c3ccn[nH]3)nc2)c1` [53-3], the results for the IC50 in test [1] and in test [2] were 53 nM and 140 nM, respectively.

Regarding `CCCCCc1cccc(COc2ccc(-c3ccn[nH]3)nc2)c1` [53-4], the IC50 in test [1] was found to be 460 nM; in test [2], 32 nM.

Consider `c1cc(COc2ccc(-c3ccn[nH]3)nc2)cc(C2CCCCC2)c1` [53-5], for which the results for the IC50 in test [1] and in test [2] were 660 nM and 130 nM, respectively.

In the case of `COc1ccc(COc2ccc(-c3ccn[nH]3)nc2)cc1F` [54-3], the figures for the IC50 in test [1] and in test [2] were 660 nM and 12 nM, respectively.

For `Fc1ccc(COc2ccc(-c3ccn[nH]3)nc2)cc1F` [54-4], the IC50 is 350 nM in test [1] and 24 nM in test [2].

On to `Fc1cc(COc2ccc(-c3ccn[nH]3)nc2)ccc1Cl` [54-5], for which the IC50 in test [1] is 640 nM; in test [2] it was 13 nM.

On to `Fc1ccc(COc2ccc(-c3ccn[nH]3)nc2)cc1Cl` [54-6], for which the IC50 came out at 88 nM in test [1] and 29 nM in test [2].

On to `Clc1ccc(COc2ccc(-c3ccn[nH]3)nc2)cc1Cl` [54-7], for which the IC50 came out at 170 nM in test [1] and 19 nM in test [2].

On to `Fc1ccc(COc2ccc(-c3ccn[nH]3)nc2)cc1C(F)(F)F` [54-8], for which the figures for the half-inhibitory concentration (IC50) in test [1] and in test [2] were 1100 nM and 21 nM, respectively.

For `Fc1cc(F)cc(COc2ccc(-c3ccn[nH]3)nc2)c1` [54-9], the IC50 was 670 nM in test [1] and 130 nM in test [2].

For `Clc1cc(Cl)cc(COc2ccc(-c3ccn[nH]3)nc2)c1` [54-10], the IC50 is 68 nM in test [1] and 290 nM in test [2].

Turning to `COc1cc(COc2ccc(-c3ccn[nH]3)nc2)cc(OC)c1` [54-11], the figures for the IC50 in test [1] and in test [2] were 690 nM and 320 nM, respectively.

Consider `CCOc1cc(COc2ccc(-c3ccn[nH]3)nc2)cc(OCC)c1` [54-12], for which the results for the IC50 in test [1] and in test [2] were 3600 nM and 640 nM, respectively.

For the compound `Fc1cc(COc2ccc(-c3ccn[nH]3)nc2)cc(F)c1F` [54-13], the IC50 in test [1] was 480 nM; in test [2], 170 nM.

On to `CC(C)c1ccc(COc2ccc(-c3ccn[nH]3)nc2)cc1` [54-14], for which the figures for the IC50 in test [1] and in test [2] were 1200 nM and 33 nM, respectively.

For the compound `CC(C)(C)c1ccc(COc2ccc(-c3ccn[nH]3)nc2)cc1` [54-15], the IC50 in test [1] stood at 6300 nM; in test [2], 440 nM.

In the case of `Fc1cccc(COc2ccc(-c3ccn[nH]3)nc2)c1` [54-16], the figures for the IC50 in test [1] and in test [2] were 520 nM and 22 nM, respectively.

For the compound `Fc1ccc(COc2ccc(-c3ccn[nH]3)nc2)cc1` [54-17], the IC50 came out at 370 nM in test [1] and 21 nM in test [2].

Take `Clc1cccc(COc2ccc(-c3ccn[nH]3)nc2)c1` [54-18]: the IC50 in test [1] was 130 nM; in test [2], 23 nM.

As to `N#Cc1cccc(COc2ccc(-c3ccn[nH]3)nc2)c1` [54-19], the IC50 was determined as 390 nM in test [1] and 15 nM in test [2].

`N#Cc1ccc(COc2ccc(-c3ccn[nH]3)nc2)cc1` [54-20]: the IC50 amounted to 1600 nM in test [1] and 6.5 nM in test [2].

`Clc1ccc(COc2ccc(-c3ccn[nH]3)nc2)cc1` [54-21]: the IC50 amounted to 650 nM in test [1] and 9.3 nM in test [2].

Turning to `CC(C)C(=O)N1CCC(COc2ccc(-c3ccn[nH]3)nc2)CC1` [Example 1-2], the IC50 in test [1] worked out at 530 nM; in test [2], 180 nM.

In the case of `COC(=O)N1CCC(COc2ccc(-c3ccn[nH]3)nc2)CC1` [Example 1-3], the IC50 in test [1] was 310 nM; in test [2] it was 73 nM.

`CC(C)OC(=O)N1CCC(COc2ccc(-c3ccn[nH]3)nc2)CC1` [Example 1-4]: the half-inhibitory concentration (IC50) stood at 510 nM in test [1] and 120 nM in test [2].

For `O=C(C1CC1)N1CCC(COc2ccc(-c3ccn[nH]3)nc2)CC1` [Example 1-5], the IC50 in test [1] was 530 nM; in test [2], 110 nM.

As to `CC(=O)N1CCC[C@@H](COc2ccc(-c3ccn[nH]3)nc2)C1` [Example 1-6], the results for the 50% inhibitory concentration (IC50) in test [1] and in test [2] were 70 nM and 640 nM, respectively.

As to `CC(C)C(=O)N1CCC[C@@H](COc2ccc(-c3ccn[nH]3)nc2)C1` [Example 1-7], the IC50 in test [1] worked out at 87 nM; in test [2], 150 nM.

Regarding `COC(=O)N1CCC[C@@H](COc2ccc(-c3ccn[nH]3)nc2)C1` [Example 1-8], the half-maximal inhibitory concentration (IC50) was found to be 130 nM in test [1] and 190 nM in test [2].

`CC(C)OC(=O)N1CCC[C@@H](COc2ccc(-c3ccn[nH]3)nc2)C1` [Example 1-9]: the 50% inhibitory concentration (IC50) in test [1] came to 210 nM; in test [2], 130 nM.

In the case of `CN(C)C(=O)N1CCC[C@@H](COc2ccc(-c3ccn[nH]3)nc2)C1` [Example 1-10], the IC50 in test [1] worked out at 130 nM; in test [2], 22 nM.

`CC(=O)N1CCC[C@H](COc2ccc(-c3ccn[nH]3)nc2)C1` [Example 1-11]: the IC50 in test [1] is 220 nM; in test [2] it was 180 nM.

As to `CC(C)C(=O)N1CCC[C@H](COc2ccc(-c3ccn[nH]3)nc2)C1` [Example 1-12], the results for the IC50 in test [1] and in test [2] were 330 nM and 21 nM, respectively.

Regarding `COC(=O)N1CCC[C@H](COc2ccc(-c3ccn[nH]3)nc2)C1` [Example 1-13], the IC50 in test [1] worked out at 310 nM; in test [2] it was 50 nM.

On to `CC(C)OC(=O)N1CCC[C@H](COc2ccc(-c3ccn[nH]3)nc2)C1` [Example 1-14], for which the results for the IC50 in test [1] and in test [2] were 330 nM and 39 nM, respectively.

As to `CN(C)C(=O)N1CCC[C@H](COc2ccc(-c3ccn[nH]3)nc2)C1` [Example 1-15], the results for the concentration for half-maximal inhibition (IC50) in test [1] and in test [2] were 350 nM and 8 nM, respectively.

With `CC(C)OC(=O)N1CC(S(=O)(=O)N2CCC[C@@H](COc3ccc(-c4ccn[nH]4)nc3)C2)C1` [Example 1-17], the IC50 in test [1] is 51 nM; in test [2], 6.3 nM.

As to `CC(C)OC(=O)N1CC(S(=O)(=O)N2CCC[C@H](COc3ccc(-c4ccn[nH]4)nc3)C2)C1` [Example 1-18], the IC50 in test [1] amounted to 82 nM; in test [2], 3.6 nM.

With `CC(C)CC(=O)N1CC(S(=O)(=O)N2CCC[C@H](COc3ccc(-c4ccn[nH]4)nc3)C2)C1` [Example 1-19], the IC50 worked out at 190 nM in test [1] and 3.7 nM in test [2].

`CC(C)CC(=O)N1CC(S(=O)(=O)N2CCC[C@@H](COc3ccc(-c4ccn[nH]4)nc3)C2)C1` [Example 1-20]: the IC50 in test [1] is 77 nM; in test [2], 8.6 nM.
